From article PMC11189555, “Aryl amino acetamides prevent Plasmodium falciparum ring development via targeting the lipid-transfer protein PfSTART1” (Nature Communications, 2024)

How the values were obtained:
[1] = target: T1, PfSTART1 in parasite lysate (Plasmodium falciparum, UniProt Q8I298); assay: Solvent profiling Western Blot (solvent induced protein precipitation); type: binding; conditions: 10 µM W-991 vs DMSO, 0-25% AEF
T1 construct: endogenous in cells; host or cells: P. falciparum 3D7 schizonts, NP40-soluble lysate
Method: 3D7 parasites at schizont stage were harvested with 10 x pellet volume of 0.15% saponin in PBS. To extract soluble material, 10 x pellet volume of 0.4% NP40 (IGEPAL CA-630, Sigma-Aldrich) in PBS with 1x Complete Protease cocktail tablet (Sigma-Aldrich) was added to the parasite pellets and 3 cycles of freeze/thawing was performed. Samples were then mechanically sheared by passage through 25 G and 30 G needles before lysate was cleared via centrifugation at 16,000 g x 30 min at 4 °C. Soluble fractions were collected and stored at −80 °C until use.
For the solvent challenge, lysate was subjected to either W-991 (10 µM) or DMSO (0.1%) treatment for 3 min before aliquoted into final concentrations of 0-25% of Acetic acid/Ethanol/Formic acid (AEF) at a 50:50:0.1 (v/v/v)[25],[26]. The treated lysate and AEF mixture was incubated at 37 °C for 20 min at 800 rpm before aggregates were pelleted at 17,000 g x 20 min at 4 °C. Soluble fractions were removed, added to the final concentration of 1x NuPAGE LDS Sample Buffer (Invitrogen) with 1:100 2-mercaptoethanol (Sigma Aldrich) and boiled for 3 min. Proteins were separated on an 4-12% acrylamide gel (NuPAGE, Invitrogen) and subsequently transferred by electroblotting onto nitrocellulose membranes. Blots were probed with primary antibody anti-PfSTART1 (1:1000), followed by secondary antibody anti-rabbit-HRP (1:4000, Merck Millipore). […]

ring-stage parasites = assay: Parasite reduction ratio assay; type: cell-based, Plasmodium falciparum
Method: Parasite reduction ratio assay. This was performed as previously described 9,10.
Briefly, asynchronous ring -stage parasites at 0.5% parasitemia and 2% haematocrit were exposed to compounds at 10 x EC50 of growth for five days with daily drug renewal. After each 24 h, a well from each treatment group was taken and washed three times in complete RPMI and final volume adjusted to 2% haematocrit. The washed culture was then aliquoted into a 96 well U-bottom plate and a 1:3 serial dilution into fresh uninfected RBCs was performed with four technical replicates for each time point. Plates were maintained in normal culturing conditions: media was replaced, and fresh RBCs given 1-2 times a week for three weeks, after which parasite growth was measured via lactate dehydrogenase assays. The number of viable parasites was calculated using the formula xn-1 +1, where x is the dilution factor and n is the number of wells that contain parasite growth. The viable parasite value was then expressed in log units and parasite reduction ratio was calculated as a decrease in […]

P. berghei = conditions: at concentrations that are effective against P. falciparum; ref Nguyen et al. 2024; cited from earlier work

T1 sequence (Q8I298 entry or part of it): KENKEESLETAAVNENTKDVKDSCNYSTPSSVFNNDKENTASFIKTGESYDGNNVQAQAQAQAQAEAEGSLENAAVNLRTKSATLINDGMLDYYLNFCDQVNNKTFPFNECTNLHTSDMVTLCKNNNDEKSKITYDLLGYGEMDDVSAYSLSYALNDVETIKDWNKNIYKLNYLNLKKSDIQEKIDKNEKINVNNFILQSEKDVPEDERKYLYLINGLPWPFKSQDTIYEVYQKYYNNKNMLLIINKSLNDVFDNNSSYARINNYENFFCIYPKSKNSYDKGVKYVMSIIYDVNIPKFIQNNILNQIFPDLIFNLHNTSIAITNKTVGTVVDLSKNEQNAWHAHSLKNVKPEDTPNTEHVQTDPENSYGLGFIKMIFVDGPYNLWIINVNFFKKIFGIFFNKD

## CC(C)(Nc1ccc(Cl)c(S(=O)(=O)N2CCOCC2)c1)C(=O)Nc1ccc(F)c(Cl)c1 [W-991]
[1]
  AEF concentration at which protection to PfSTART1 aggregation was elicited: 19-21 % AEF
ring-stage parasites; 60 nM W-991, lag phases 0-24 h, 48-96 h
  lag phases: more than 24 h
ring-stage parasites; 10 x EC50 (60 nM W-991) for up to 5 days, then 21 days culture
  viable parasites after treatment: a proportion of parasites remained after a treatment period of 5 days
ring-stage parasites; 10xEC50: 75 nM CQ, 60 nM W-991
  killing profile: slow
ring-stage parasites; Replicate 1, 24 Hours
  PRR calculations: log viability at Hours 24: 4.771
ring-stage parasites; Replicate 1, 72 Hours
  PRR calculations: log viability at Hours 72: 3.34
ring-stage parasites; Replicate 1, PRR calculations
  PRR: 1.431
ring-stage parasites; Replicate 1, T=1
  log(parasite viability) +1: 4.771
ring-stage parasites; Replicate 1, T=1, 1:3 dilution
  Parasite viability: 59049
ring-stage parasites; Replicate 1, T=2
  log(parasite viability) +1: 3.34
ring-stage parasites; Replicate 1, T=2, 1:3 dilution
  Parasite viability: 2187
ring-stage parasites; Replicate 1, T=3
  log(parasite viability) +1: 3.34
ring-stage parasites; Replicate 1, T=3, 1:3 dilution
  Parasite viability: 2187
ring-stage parasites; Replicate 1, T=4
  log(parasite viability) +1: 3.34
ring-stage parasites; Replicate 1, T=4, 1:3 dilution
  Parasite viability: 2187
ring-stage parasites; Replicate 1, T=5
  log(parasite viability) +1: 2.863
ring-stage parasites; Replicate 1, T=5, 1:3 dilution
  Parasite viability: 729
ring-stage parasites; Replicate 2, Hours 72
  log(parasite viability) +1 used in PRR calculations: 3.34
ring-stage parasites; Replicate 2, Hours 120
  log(parasite viability) +1 used in PRR calculations: 1.914
ring-stage parasites; Replicate 2, PRR calculations
  PRR: 1.426
ring-stage parasites; Replicate 2, T=1
  Parasite viability +1: 177148
  log(parasite viability) +1: 5.248
ring-stage parasites; Replicate 2, T=1, 1:3 dilution
  Parasite viability: 177147
ring-stage parasites; Replicate 2, T=2
  Parasite viability +1: 2188
  log(parasite viability) +1: 3.34
ring-stage parasites; Replicate 2, T=2, 1:3 dilution
  Parasite viability: 2187
ring-stage parasites; Replicate 2, T=3
  Parasite viability +1: 2188
  log(parasite viability) +1: 3.34
ring-stage parasites; Replicate 2, T=3, 1:3 dilution
  Parasite viability: 2187
ring-stage parasites; Replicate 2, T=4
  Parasite viability +1: 2188
  log(parasite viability) +1: 3.34
ring-stage parasites; Replicate 2, T=4, 1:3 dilution
  Parasite viability: 2187
ring-stage parasites; Replicate 2, T=5
  Parasite viability +1: 82
  log(parasite viability) +1: 1.914
ring-stage parasites; Replicate 2, T=5, 1:3 dilution
  Parasite viability: 81
ring-stage parasites; replicate 3, T=1
  Parasite viability (1:3 dilution): 177147
  log(parasite viability) +1: 5.248
ring-stage parasites; replicate 3, T=2
  Parasite viability (1:3 dilution): 2187
ring-stage parasites; replicate 3, T=2 (48 hours in PRR calculations)
  log(parasite viability) +1: 3.34
ring-stage parasites; replicate 3, T=3
  Parasite viability (1:3 dilution): 729
ring-stage parasites; replicate 3, T=3 (72 hours in PRR calculations)
  log(parasite viability) +1: 2.863
ring-stage parasites; replicate 3, T=4
  Parasite viability (1:3 dilution): 19683
  log(parasite viability) +1: 4.294
ring-stage parasites; replicate 3, T=5
  Parasite viability (1:3 dilution): 81
ring-stage parasites; replicate 3, T=5 (120 hours in PRR calculations)
  log(parasite viability) +1: 1.914
ring-stage parasites; replicate 3, difference of log viability over 48 h (CQ 0-48 hours, W991 72-120 hours)
  PRR: 0.9495
P. berghei
  effect on P. berghei parasitemia: does not reduce P. berghei parasitemia
